Measurements: patent US5916904A, “Antimicrobial agent” (Eisai Co., Ltd., priority 1992, dated 1999)
≈ marks a conversion by molar mass, not a printed value.

Experiments:
C. pylori EI-930 = assay: MIC by agar dilution method, C. pylori clinical isolate EI-930; type: cell-based; settings: Helicobacter pylori, EI930, 72 h; EI-930, clinical isolate; in vitro, 37° C., pH 7.0, 3 days, microaerophilic; read-out: antibiotic activity (MIC)
C. pylori EI-46 = assay: MIC by agar dilution method, C. pylori clinical isolate EI-46; type: cell-based; settings: Helicobacter pylori, EI46, 72 h; EI-46, clinical isolate (resistant); in vitro, 37° C., pH 7.0, 3 days, microaerophilic; read-out: antibiotic activity (MIC)
C. pylori EI-612 = assay: MIC by agar dilution method, C. pylori clinical isolate EI-612; type: cell-based; settings: Helicobacter pylori, EI612, 72 h; EI-612, clinical isolate; in vitro, 37° C., pH 7.0, 3 days, microaerophilic; read-out: antibiotic activity (MIC)
C. pylori EI-925 = assay: MIC by agar dilution method, C. pylori clinical isolate EI-925; type: cell-based; settings: Helicobacter pylori, EI925, 72 h; EI-925, clinical isolate; in vitro, 37° C., pH 7.0, 3 days, microaerophilic; read-out: antibiotic activity (MIC)
C. pylori EI-36 = assay: MIC by agar dilution method, C. pylori clinical isolate EI-36; type: cell-based; settings: Helicobacter pylori, EI36, 72 h; EI-36, clinical isolate; in vitro, 37° C., pH 7.0, 3 days, microaerophilic; read-out: antibiotic activity (MIC)
C. pylori EI-429 = assay: MIC by agar dilution method, C. pylori clinical isolate EI-429; type: cell-based; settings: Helicobacter pylori, EI429, 72 h; EI-429, clinical isolate; in vitro, 37° C., pH 7.0, 3 days, microaerophilic; read-out: antibiotic activity (MIC)
C. pylori EI-2 = assay: MIC by agar dilution method, C. pylori clinical isolate EI-2; type: cell-based; settings: Helicobacter pylori, EI2, 72 h; EI-2, clinical isolate; in vitro, 37° C., pH 7.0, 3 days, microaerophilic; read-out: antibiotic activity (MIC)
C. pylori = assay: antibiotic activity against C. pylori, overall conclusion; type: cell-based; settings: compared with antibiotic substances / known compounds
C. pylori NCTC11916 = assay: MIC by agar dilution method, C. pylori standard strain NCTC11916; type: cell-based; settings: Helicobacter pylori, 72 h, in vitro, 37° C., pH 7.0, 3 days, microaerophilic, read-out: antibiotic activity (MIC)
C. pylori EI-5 = assay: MIC by agar dilution method, C. pylori clinical isolate EI-5; type: cell-based; settings: Helicobacter pylori, EI5, 72 h; EI-5, clinical isolate; in vitro, 37° C., pH 7.0, 3 days, microaerophilic; read-out: antibiotic activity (MIC)
C. pylori EI-397 = assay: MIC by agar dilution method, C. pylori clinical isolate EI-397; type: cell-based; settings: Helicobacter pylori, EI397, 72 h; EI-397, clinical isolate; in vitro, 37° C., pH 7.0, 3 days, microaerophilic; read-out: antibiotic activity (MIC)
C. pylori EI-393 = assay: MIC by agar dilution method, C. pylori clinical isolate EI-393; type: cell-based; settings: Helicobacter pylori, EI393, 72 h; EI-393, clinical isolate; in vitro, 37° C., pH 7.0, 3 days, microaerophilic; read-out: antibiotic activity (MIC)
C. pylori EI-933 = assay: MIC by agar dilution method, C. pylori clinical isolate EI-933; type: cell-based; settings: Helicobacter pylori, EI933, 72 h; EI-933, clinical isolate; in vitro, 37° C., pH 7.0, 3 days, microaerophilic; read-out: antibiotic activity (MIC)
C. pylori EI-391 = assay: MIC by agar dilution method, C. pylori clinical isolate EI-391; type: cell-based; settings: Helicobacter pylori, EI391, 72 h; EI-391, clinical isolate (resistant); in vitro, 37° C., pH 7.0, 3 days, microaerophilic; read-out: antibiotic activity (MIC)
C. pylori EI-467 = assay: MIC by agar dilution method, C. pylori clinical isolate EI-467; type: cell-based; settings: Helicobacter pylori, EI467, 72 h; EI-467, clinical isolate; in vitro, 37° C., pH 7.0, 3 days, microaerophilic; read-out: antibiotic activity (MIC)
C. pylori NCTC11637 = assay: MIC by agar dilution method, C. pylori standard strain NCTC11637; type: cell-based; settings: Helicobacter pylori, 72 h, in vitro, 37° C., pH 7.0, 3 days, microaerophilic, read-out: antibiotic activity (MIC)
[1] = tested on: C. pylori NCTC-11916, NCTC-11637, PCL-56, CPY-0011-1, KS-13, CLO-1 and CLO-6; settings: standard strains and clinical isolates; JP-A 3-173817; cited from earlier work

| Structure (SMILES) | MIC (C. pylori EI-930) [µg/mL] | MIC (C. pylori EI-46) [µg/mL] | MIC (C. pylori EI-612) [µg/mL] | MIC (C. pylori EI-925) [µg/mL] | MIC (C. pylori EI-36) [µg/mL] | MIC (C. pylori EI-429) [µg/mL] | MIC (C. pylori EI-2) [µg/mL] | C. pylori-eradicating activity (C. pylori) | MIC (C. pylori NCTC11916) [µg/mL] | MIC (C. pylori EI-5) [µg/mL] | MIC (C. pylori EI-397) [µg/mL] | MIC (C. pylori EI-393) [µg/mL] | MIC (C. pylori EI-933) [µg/mL] | MIC (C. pylori EI-391) [µg/mL] | MIC (C. pylori EI-467) [µg/mL] | MIC (C. pylori NCTC11637) [µg/mL] | antibiotic activity [1] |
| --- | --- | --- | --- | --- | --- | --- | --- | --- | --- | --- | --- | --- | --- | --- | --- | --- | --- |
| COCCCOc1ccnc(CSc2nc3ccccc3[nH]2)c1C [(II), 2-[(4-(3-Methoxypropoxy)-3-methylpyridine-2-yl)-methylthio]-1H-benzimidazole] | 0.4 (≈ 1.16 µM) | 0.4 (≈ 1.16 µM) | 0.8 (≈ 2.33 µM) | 0.4 (≈ 1.16 µM) | 0.4 (≈ 1.16 µM) | 1.56 (≈ 4.54 µM) | 0.4 (≈ 1.16 µM) | the same C. pylori-eradicating activity as an antibiotic substance | 0.2 (≈ 0.582 µM) | 0.2 (≈ 0.582 µM) | 1.56 (≈ 4.54 µM) | 1.56 (≈ 4.54 µM) | 0.8 (≈ 2.33 µM) | 1.56 (≈ 4.54 µM) | 1.56 (≈ 4.54 µM) | 0.8 (≈ 2.33 µM) | – |
| Cc1c(OCC(F)(F)C(F)(F)F)ccnc1CSc1nc2ccccc2[nH]1 [JP-A 3-173817 compound (13), 2-[{3-Methyl-4-(2,2,3,3,3-pentafluoropropoxy)pyrid-2-yl}methylthio]-1H-benzimidazole] | – | – | – | – | – | – | – | – | – | – | – | – | – | – | – | – | activity against all the tested strains |
| Cc1c(OCC(F)(F)C(F)F)ccnc1CSc1nc2ccccc2[nH]1 [JP-A 3-173817 compound (12), 2-[{3-Methyl-4-(2,2,3,3-tetrafluoropropoxy)pyrid-2-yl}methylthio]-1H-benzimidazole] | – | – | – | – | – | – | – | – | – | – | – | – | – | – | – | – | activity against all the tested strains |
| CC[C@H]1OC(=O)[C@H](C)[C@@H](O[C@H]2C[C@@](C)(OC)[C@@H](O)[C@H](C)O2)[C@H](C)[C@@H](O[C@@H]2O[C@H](C)C[C@H](N(C)C)[C@H]2O)[C@](C)(O)C[C@@H](C)/C(=N\OCOCCOC)[C@H](C)[C@@H](O)[C@]1(C)O [(VI), roxithromycin] | 0.4 (≈ 0.478 µM) | > 100 | 0.2 (≈ 0.239 µM) | 0.2 (≈ 0.239 µM) | 0.2 (≈ 0.239 µM) | 0.2 (≈ 0.239 µM) | 0.2 (≈ 0.239 µM) | – | 0.1 (≈ 0.119 µM) | 0.2 (≈ 0.239 µM) | 0.2 (≈ 0.239 µM) | 0.2 (≈ 0.239 µM) | 0.1 (≈ 0.119 µM) | 50 (≈ 59.7 µM) | 0.2 (≈ 0.239 µM) | 0.4 (≈ 0.478 µM) | – |
| CC1(C)S[C@@H]2[C@H](NC(=O)[C@H](N)c3ccccc3)C(=O)N2[C@H]1C(=O)O [(VII), ampicillin] | 0.4 (≈ 1.14 µM) | 0.05 (≈ 0.143 µM) | 0.05 (≈ 0.143 µM) | 0.2 (≈ 0.572 µM) | 0.2 (≈ 0.572 µM) | 0.2 (≈ 0.572 µM) | 0.4 (≈ 1.14 µM) | – | 0.05 (≈ 0.143 µM) | 0.4 (≈ 1.14 µM) | 0.1 (≈ 0.286 µM) | 0.1 (≈ 0.286 µM) | 0.05 (≈ 0.143 µM) | 0.1 (≈ 0.286 µM) | 0.05 (≈ 0.143 µM) | 0.4 (≈ 1.14 µM) | – |
| Cc1c(OCC(F)(F)F)ccnc1CSc1nc2ccccc2[nH]1 [(V), 2-[{3-Methyl-4-(2,2,2-trifluoroethoxy)pyrid-2-yl}methylthio]-1H-benzimidazole] | 12.5 (≈ 35.4 µM) | 12.5 (≈ 35.4 µM) | 6.25 (≈ 17.7 µM) | 12.5 (≈ 35.4 µM) | 12.5 (≈ 35.4 µM) | 25 (≈ 70.7 µM) | 25 (≈ 70.7 µM) | – | 12.5 (≈ 35.4 µM) | 12.5 (≈ 35.4 µM) | 25 (≈ 70.7 µM) | 25 (≈ 70.7 µM) | 12.5 (≈ 35.4 µM) | 12.5 (≈ 35.4 µM) | 12.5 (≈ 35.4 µM) | 25 (≈ 70.7 µM) | – |
